Data on 16 compounds can be found in ChEMBL document CHEMBL4342426, “Structure-activity relationship of 4-azaindole-2-piperidine derivatives as agents against Trypanosoma cruzi” (Bioorg Med Chem Lett, 2020).

Data set [1] relates to Trypanosoma brucei rhodesiense. Kind of data set: microbe, parasite or virus in culture. The following applies: STIB900, 72 h.
Description: Antiprotozoal activity against Trypanosoma brucei rhodesiense STIB900 trypomastigotes incubated for 72 hrs by resazurin dye based fluorimetric analysis
A short description of data set [2]: cells. To be noted: Homo sapiens, MRC-5 SV2, 72 h.
Description: (§1) Cytotoxicity against human MRC5 SV2 cells assessed as reduction in cell viability incubated for 3 days by fluorimetry
The nature of data set [3]: in vitro. The following applies: mouse, liver microsomes. (In general: Liver microsomes are a subcellular fraction often used to study metabolism.)
Description: Metabolic stability in mouse liver microsomes assessed as intrinsic clearance at 0.5 uM incubated for 30 mins by LC-MS/MS analysis
Data set [4] concerns Trypanosoma cruzi. Kind of data set: microbe, parasite or virus in culture. The following applies: Tulahuen CL2, MRC-5 SV2, 168 h.
Description: Antitrypanosomal activity against Trypanosoma cruzi Tulahuen CL2 amastigotes infected in human MRC5 SV2 cells incubated for 7 days by chlorophenol red beta-D-galactopyranoside substrate based spectrophotometric assay
Data set [5] relates to Leishmania infantum. The experiment in a line: microbe, parasite or virus in culture. To be noted: for IC50: MHOM/MA(BE)/67/ITMAP263, 120 h; for IC90: MHOM/MA(BE)/67/ITMAP263, in Mus musculus, 120 h.
Description: Antileishmanial activity against amastigote stage of Leishmania infantum MHOM/MA(BE)/67/ITMAP263 infected in mouse peritoneal macrophage assessed as parasite growth inhibition incubated for 5 days by Giemsa staining based assay
Data set [6] concerns Macrophage. Kind of data set: cells. The following applies: Mus musculus, 72 h.
Description: (§2) Cytotoxicity against mouse peritoneal Macrophage cells assessed as reduction in cell viability incubated for 3 days by fluorimetry
The nature of data set [7]: in vitro. To be noted: human, MRC5 SV2 cells.
Description: as §1
Data set [8] in a line: in vitro. The following applies: human, liver microsomes.
Description: Metabolic stability in human liver microsomes assessed as intrinsic clearance at 0.5 uM incubated for 30 mins by LC-MS/MS analysis
Data set [9] relates to Trypanosoma brucei. Kind of data set: microbe, parasite or virus in culture. The following applies: Squib 427, 72 h.
Description: Antitrypanosomal activity against Trypanosoma brucei Squib 427 assessed as reduction in parasite growth incubated for 72 hrs by resazurin dye based fluorimetric analysis
The nature of data set [10]: physchem. The following applies: buffer, pH 7.4.
Description: Lipophilicity, logD of compound at pH 7.4 by HPLC analysis
Data set [11] is described as follows: in vitro. The following applies: PAMPA.
Description: Effective permeability of compound by PAMPA assay
Data set [12] is described as follows: in vitro. The following applies: mouse, peritoneal macrophages.
Description: as §2

A value given as a limit tells only on which side of the number the result lay.

As for `O=C(c1ccccc1)N1CC=C(c2cc3ccccc3[nH]2)CC1`, the IC50 (commonly the concentration that inhibits the measured activity by half) in data set [1] is 64 µM; in data set [2], 64 µM; in [4], 41.9 µM; in data set [5] it was 64 µM; in [6], 64 µM; in data set [9], 64 µM. For the same compound, the IC90 in data set [1], in data set [4], in data set [5] and in data set [9] was 64 µM each time. Besides, the CLint scaled (in general, the rate of metabolic loss divided by the concentration) at 0.5 h, 0.5 µM was 13200 mL/min/kg in [3] and 201 mL/min/kg in [8]. The microsomal CLint (in general, the rate of metabolic loss divided by the concentration) at 0.5 h, 0.5 µM in [3] came to 1370 µL/min/mg; in [8], 61.9 µL/min/mg. For the same compound, the IC90 at 72 h in data set [7] and in [12] was 64 µM each time. The logD (in general, the decadic logarithm of the distribution of all forms, ionised or not, between an organic phase and buffer at a given pH) in [10] worked out at 4.15. Besides, in data set [11], the Papp (as a rule, a coefficient for how fast a substance crosses the barrier) was determined as 4.86 ×10⁻⁶ cm/s.
With `O=C(CCc1nc2ncc(Cl)cc2[nH]1)Nc1cccc(F)c1`, the IC50 in [1], in data set [2], in [4], in [5], in [6] and in data set [9] was 64 µM throughout. Further, the IC90 in [1], in data set [4], in [5] and in data set [9] was 64 µM each time. For the same compound, the CLint scaled at 0.5 h, 0.5 µM in data set [3] was > 963 mL/min/kg; in data set [8] it was ≥ 25 mL/min/kg. Further, the microsomal CLint at 0.5 h, 0.5 µM is 301 µL/min/mg in data set [3] and < 23 µL/min/mg in [8]. For the same compound, the IC90 at 72 h in [7] and in [12] was 64 µM in each case. This compound registered a logD in data set [10] of 3.24. Besides, the Papp in data set [11] is 6.13 ×10⁻⁶ cm/s.
For `CCN(CCc1nc2ncccc2[nH]1)C(=O)c1ccccc1`, the IC50 in data set [1], in data set [2], in data set [4], in data set [5], in [6] and in data set [9] was 64 µM each time. The IC90 in data set [1], in data set [4], in [5] and in data set [9] was 64 µM in each case. Moreover, the IC90 at 72 h in [7] and in data set [12] was 64 µM in each case. In addition, the log distribution coefficient (logD) in data set [10] was determined as 1.63. Further, the Papp in data set [11] fell in the range of 3.35 to 3.44 ×10⁻⁶ cm/s.
On to `CCCC(=O)N1CCCC(O)(c2cc3ncccc3[nH]2)C1` (stereo not drawn), for which the IC50 in data set [1], in [2], in [4], in [5], in [6] and in data set [9] was 64 µM throughout. Also, the IC90 in [1], in [4], in [5] and in [9] was 64 µM throughout. Also, the IC90 at 72 h in data set [7] and in [12] was 64 µM throughout.
Regarding `CC(=O)N1C=C(c2cc3ncccc3[nH]2)CCC1`, the IC50 in data set [1], in data set [2], in [4], in data set [5], in [6] and in [9] was 64 µM in each case. The IC90 in [1], in data set [4], in data set [5] and in data set [9] was 64 µM in each case. For the same compound, the IC90 at 72 h in data set [7] and in data set [12] was 64 µM in each case.
On to `O=C(c1ccccc1)N1CCC(O)(c2cc3ncccc3[nH]2)CC1`, for which the IC50 in data set [1], in data set [2], in data set [4], in [5], in data set [6] and in data set [9] was 64 µM in each case. Besides, the IC90 in data set [1], in data set [4], in data set [5] and in [9] was 64 µM each time. For the same compound, the intrinsic clearance (CLint scaled) at 0.5 h, 0.5 µM is 956 mL/min/kg in data set [3] and 52 mL/min/kg in data set [8]. Moreover, the microsomal CLint at 0.5 h, 0.5 µM amounted to 193 µL/min/mg in data set [3] and 31 µL/min/mg in [8]. For the same compound, the IC90 at 72 h in [7] and in [12] was 64 µM throughout. Also, the log distribution coefficient (logD) in data set [10] stood at 2.13.
As for `OC1(c2cc3ncccc3[nH]2)CCN(Cc2ccccc2)CC1`, the IC50 in data set [1], in [2], in [4], in data set [5], in data set [6] and in [9] was 64 µM in each case. The IC90 in data set [1], in data set [4], in data set [5] and in data set [9] was 64 µM in each case. The CLint scaled at 0.5 h, 0.5 µM in data set [3] was 1920 mL/min/kg; in [8], 143 mL/min/kg. In addition, the microsomal CLint at 0.5 h, 0.5 µM in data set [3] turned out to be 434 µL/min/mg; in data set [8], 94.4 µL/min/mg. Moreover, the IC90 at 72 h in data set [7] and in [12] was 64 µM in each case. In data set [10], this compound registered a logD of 2.13.
For the compound `O=S(=O)(c1ccccc1)N1CC=C(c2cc3ncccc3[nH]2)CC1`, the IC50 in data set [1] was determined as 64 µM; in data set [2], 64 µM; in [4], 64 µM; in [5], 45.6 µM; in data set [6] it was 45.3 µM; in [9] it was 64 µM. The IC90 – broadly, the point of the concentration-response curve where the effect stands at 90% – in data set [1] was found to be 64 µM; in [4] it was 64 µM; in data set [5], 60.5 µM; in [9], 64 µM. For the same compound, the IC90 at 72 h in [7] was 64 µM; in [12] it was 59.7 µM.
On to `O=C(Cn1ccnc1[N+](=O)[O-])NCc1ccccc1` [BENZNIDAZOLE], for which the IC50 in [4] fell in the range of 2 to 5 µM.
`O=C(NCCc1nc2ccccc2[nH]1)c1ccccc1`: the IC50 in data set [1], in [2], in data set [4], in [5], in [6] and in data set [9] was 64 µM throughout. Besides, the IC90 in data set [1], in [4], in data set [5] and in [9] was 64 µM in each case. Also, the IC90 at 72 h in [7] and in data set [12] was 64 µM each time.
Take `CC(C)c1cc(C(=O)N2CCC(O)(c3cc4ncccc4[nH]3)CC2)on1`: the IC50 in data set [1] stood at 64 µM; in data set [2], 64 µM; in data set [4], 45.9 µM; in data set [5], 64 µM; in [6] it was 64 µM; in data set [9], 64 µM. Besides, the IC90 in data set [1], in data set [4], in data set [5] and in data set [9] was 64 µM each time. Moreover, the CLint scaled at 0.5 h, 0.5 µM was 4900 mL/min/kg in [3] and 40.7 mL/min/kg in data set [8]. Besides, the microsomal CLint at 0.5 h, 0.5 µM in [3] came to 980 µL/min/mg; in [8], 24.1 µL/min/mg. In addition, the IC90 at 72 h in data set [7] and in data set [12] was 64 µM each time. This compound also came in with a logD in [10] of 2.46.
Turning to `O=C(c1cncnc1)N1CCCC(c2cc3ncccc3[nH]2)C1` (stereo not drawn), the IC50 in data set [1], in data set [2], in [4], in data set [5], in data set [6] and in data set [9] was 64 µM throughout. The IC90 in data set [1], in data set [4], in [5] and in [9] was 64 µM throughout. Further, the IC90 at 72 h in data set [7] and in data set [12] was 64 µM each time. In addition, in data set [8], the CLint scaled at 0.5 h, 0.5 µM was < 31.3 mL/min/kg. For the same compound, the intrinsic clearance (microsomal CLint) at 0.5 h, 0.5 µM in data set [8] was < 23 µL/min/mg. In data set [10], this compound yielded a logD of 1.24.
For `CC(=O)O[C@H]1C(=O)[C@@]2(C)[C@H]([C@H](OC(=O)c3ccccc3)[C@]3(O)C[C@H](OC(=O)[C@H](O)[C@@H](NC(=O)c4ccccc4)c4ccccc4)C(C)=C1C3(C)C)[C@]1(OC(C)=O)CO[C@@H]1C[C@@H]2O` [PACLITAXEL], the CC50 (as a rule, the concentration that lowers cell viability or growth by half) at 72 h in [7] is < 0.01 µM.
`CC(C)(C)OC(=O)N1CCCC(O)(c2cc3ncccc3[nH]2)C1` (stereo not drawn): the IC50 in data set [1], in data set [2], in [4], in data set [5], in [6] and in data set [9] was 64 µM each time. In addition, the IC90 in data set [1], in data set [4], in data set [5] and in data set [9] was 64 µM throughout. In addition, the IC90 at 72 h in data set [7] and in data set [12] was 64 µM throughout.
Consider `CC[C@]1(O)C[C@@H]2CN(CCc3c([nH]c4ccccc34)[C@@](C(=O)OC)(c3cc4c(cc3OC)N(C)[C@H]3[C@@](O)(C(=O)OC)[C@H](OC(C)=O)[C@]5(CC)C=CCN6CC[C@]43[C@@H]65)C2)C1` [VINBLASTINE], for which the CC50 at 72 h in data set [7] is < 0.01 µM.
As to `O=C(CCc1nc2ncccc2[nH]1)Nc1ccccc1`, the IC50 in data set [1], in data set [2], in data set [4], in [5], in [6] and in [9] was 64 µM throughout. Further, the IC90 in [1], in data set [4], in data set [5] and in [9] was 64 µM each time. The IC90 at 72 h in data set [7] and in data set [12] was 64 µM throughout. In [10], this compound displayed a logD of 1.75. Besides, the Papp in data set [11] came to 2.72 ×10⁻⁶ cm/s.
